pIC50: −log10 of the molar value.
Target: T1, VEGFR2 (Homo sapiens, UniProt P35968)
T1 construct: purchased Cell Signaling/ProQinase
Assay: VEGFR2 kinase inhibition (residual ATP luminescence)
Assay type: biochemical
Conditions: 1.5 uM ATP, 60 min 37° C.
Experimental: (§1) The ability of compounds of the present invention to inhibit the activity of various groups of kinases was tested. Kinases that were tested are described below. All kinase reactions were conducted in 96-well plates with a final reaction volume of 50 μl.
EGFR and VEGFR2 kinase assays were similarly performed. EGFR (76 ng/well, Panvera/Invitrogen) was combined with 12.5 mg/ml poly(glu4tyr) (Sigma) and 2.5 uM ATP. VEGFR2 (14.1 U/well, Cell Signaling/ProQinase) was used with 0.3 mg/ml poly(glu4tyr) and 1.5 uM ATP. Both were incubated for 60 minutes at 37° C., and the residual ATP was measured via luminescence, per the procedure described above.

T1 sequence (P35968 20-1356, species assumed): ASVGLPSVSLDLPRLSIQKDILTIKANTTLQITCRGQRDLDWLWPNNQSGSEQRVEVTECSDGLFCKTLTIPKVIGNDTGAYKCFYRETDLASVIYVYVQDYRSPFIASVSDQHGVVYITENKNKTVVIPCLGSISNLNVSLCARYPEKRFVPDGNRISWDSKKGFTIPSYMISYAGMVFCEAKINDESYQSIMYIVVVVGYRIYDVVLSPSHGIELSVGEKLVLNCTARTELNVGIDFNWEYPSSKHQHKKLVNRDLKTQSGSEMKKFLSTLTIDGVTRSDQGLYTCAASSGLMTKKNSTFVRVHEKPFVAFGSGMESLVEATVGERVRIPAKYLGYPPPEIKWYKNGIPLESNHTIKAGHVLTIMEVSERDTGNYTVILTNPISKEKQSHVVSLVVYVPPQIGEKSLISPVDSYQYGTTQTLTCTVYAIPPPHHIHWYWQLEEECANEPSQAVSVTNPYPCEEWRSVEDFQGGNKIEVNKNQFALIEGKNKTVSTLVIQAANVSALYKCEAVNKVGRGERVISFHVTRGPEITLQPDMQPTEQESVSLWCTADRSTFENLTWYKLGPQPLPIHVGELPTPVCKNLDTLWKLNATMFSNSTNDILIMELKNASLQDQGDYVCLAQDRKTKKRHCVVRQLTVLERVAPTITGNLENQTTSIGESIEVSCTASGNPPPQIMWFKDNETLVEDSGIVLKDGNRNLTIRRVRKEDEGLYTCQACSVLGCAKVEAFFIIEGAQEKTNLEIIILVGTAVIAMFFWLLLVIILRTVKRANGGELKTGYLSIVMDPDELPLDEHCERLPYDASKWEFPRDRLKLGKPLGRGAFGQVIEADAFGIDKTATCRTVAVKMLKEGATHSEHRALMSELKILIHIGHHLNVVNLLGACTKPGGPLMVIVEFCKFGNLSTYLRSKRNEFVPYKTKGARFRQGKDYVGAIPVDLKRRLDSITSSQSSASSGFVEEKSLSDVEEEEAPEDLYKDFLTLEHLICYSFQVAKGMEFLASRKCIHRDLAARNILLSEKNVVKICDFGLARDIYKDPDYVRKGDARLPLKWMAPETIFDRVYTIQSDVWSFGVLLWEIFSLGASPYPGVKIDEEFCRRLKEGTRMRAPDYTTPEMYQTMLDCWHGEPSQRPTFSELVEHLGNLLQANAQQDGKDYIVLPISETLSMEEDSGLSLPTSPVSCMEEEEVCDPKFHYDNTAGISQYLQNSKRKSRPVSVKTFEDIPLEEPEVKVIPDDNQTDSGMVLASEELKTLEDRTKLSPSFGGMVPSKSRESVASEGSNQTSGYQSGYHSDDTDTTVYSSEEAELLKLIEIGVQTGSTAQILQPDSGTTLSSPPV

| pIC50 | SMILES |
| --- | --- |
| 8.15 | O=C(Nc1cccc(C(F)(F)F)c1)Nc1ccc(Cl)c(C(=O)Nc2cnc(Nc3ccc(OCCN4CCCC4)cc3)nc2)c1 [drawing 202] |
| 8.27 | O=C(Nc1ccc(Cl)c(C(=O)Nc2cnc(Nc3cccnc3)nc2)c1)c1cccc(C(F)(F)F)c1 [drawing 211] |

Target: T2, human c-Src (Homo sapiens, UniProt P12931)
T2 construct: purchased Panvera/Invitrogen
T2 sequence (P12931 whole entry): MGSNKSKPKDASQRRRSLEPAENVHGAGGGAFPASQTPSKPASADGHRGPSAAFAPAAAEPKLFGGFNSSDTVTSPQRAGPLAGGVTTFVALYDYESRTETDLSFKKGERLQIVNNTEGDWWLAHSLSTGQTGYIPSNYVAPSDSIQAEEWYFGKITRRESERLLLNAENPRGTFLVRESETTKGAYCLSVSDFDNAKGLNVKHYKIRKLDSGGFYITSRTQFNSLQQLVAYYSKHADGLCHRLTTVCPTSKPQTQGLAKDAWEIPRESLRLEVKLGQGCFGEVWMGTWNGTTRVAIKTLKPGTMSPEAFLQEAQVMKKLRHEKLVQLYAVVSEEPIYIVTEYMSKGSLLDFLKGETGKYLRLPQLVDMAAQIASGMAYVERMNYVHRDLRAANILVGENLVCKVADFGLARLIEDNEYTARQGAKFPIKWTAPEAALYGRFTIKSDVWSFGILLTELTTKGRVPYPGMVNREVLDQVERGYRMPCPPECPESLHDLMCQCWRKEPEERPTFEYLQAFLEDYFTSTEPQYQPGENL
Assay: Src kinase inhibition (KinaseGlo residual ATP)
Assay type: biochemical
Conditions: ATP 3 μM, 90 min room temperature
Experimental: as §1
Recombinant human c-Src or Yes, or Fyn, or Lck (28 ng/well, Panvera/Invitrogen, Madison Wis.), ATP (3 μM), a tyrosine kinase substrate (PTK2, 250 μM, Promega Corp., Madison Wis.), and test agents (at concentrations ranging from about 1 nM/l to about 100 μM/l), in the presence of Src kinase reaction buffer (Upstate USA, Lake Placid N.Y.). After reacting for about 90 minutes at room temperature, residual ATP was determined using a luciferase-based assay (KinaseGlo, Promega Corp.) as a measure of kinase activity. Data from four wells were then averaged and used to determine IC50 values for the test compounds (Prism software package, GraphPad Software, San Diego Calif.).

| pIC50 | SMILES |
| --- | --- |
| 8.30 | O=C(Nc1ccc(Cl)c(C(=O)Nc2cnc(Nc3ccc(C(=O)NCCN4CCCC4)nc3)nc2)c1)c1cccc(C(F)(F)F)c1 |
| 6.99 | Cc1ccc(NC(=O)c2c(F)cc(F)cc2F)cc1C(=O)Nc1cnc(Nc2cccc(CCCN3CCCC3)c2)nc1 |
| 8.77 | Cc1ccc(NC(=O)c2cccc(C(F)(F)F)c2)cc1C(=O)Nc1cnc(Nc2ccc(C(=O)NCCN3CCCC3)cc2)nc1 |
| 7.03 | CN1CCN(C(=O)c2ccc(Nc3ncc(NC(=O)c4cc(NC(=O)c5cccnc5)ccc4Cl)cn3)cc2)CC1 |
| 6.12 | Cc1ccc(NC(=O)c2cccc(C(F)(F)F)c2)cc1Nc1cnc(Nc2cccc(CCCN3CCCC3)c2)nc1 |
| 7.94 | Cc1cccc(C(=O)Nc2ccc(Cl)c(C(=O)Nc3cnc(Nc4ccc(S(=O)(=O)CCCN5CCCC5)cc4)nc3)c2)c1 |
| 7.78 | Cc1ccc(NC(=O)c2ccccc2)cc1C(=O)Nc1cnc(Nc2cccc(OCCN3CCCC3)c2)nc1 |
| 7.42 | O=C(Nc1ccc(Cl)c(C(=O)Nc2cnc(Nc3ccc(S(=O)(=O)C4CCNCC4)cc3)nc2)c1)c1cccs1 |
| 7.49 | N#Cc1ccc(C(=O)Nc2ccc(Cl)c(C(=O)Nc3cnc(Nc4ccc(S(=O)(=O)C5CCNCC5)cc4)nc3)c2)cc1 |
| 7.76 | COc1ccc(C(=O)Nc2ccc(Cl)c(C(=O)Nc3cnc(Nc4ccc(S(=O)(=O)C5CCNCC5)cc4)nc3)c2)cc1 |
| 6.34 | O=C(Nc1cnc(Nc2cccnc2)nc1)c1cc(Nc2ccc3ccccc3n2)ccc1Cl |
| < 5.00 | Cc1ccc(NC(=O)C(C)(C)C)cc1C(=O)Nc1cnc(Nc2ccc(OCCN3CCCC3)cc2)nc1 |
| 7.17 | O=C(Nc1cnc(Nc2ccc(S(=O)(=O)CCCN3CCCC3)cc2)nc1)c1cccc(NC(=O)c2cccc(C(F)(F)F)c2)c1 |
| 7.71 | O=C(Nc1cnc(Nc2ccc(OCCN3CCCC3)cc2)nc1)c1cc(NC(=O)C2CCCCC2)ccc1Cl |
| 7.24 | Cc1ccc(NC(=O)Cc2cccc(C(F)(F)F)c2)cc1C(=O)Nc1cnc(Nc2cccnc2)nc1 |
| 6.77 | O=C(Nc1cnc(Nc2cccc(OCCN3CCCC3)c2)nc1)c1cc(Nc2ccccn2)ccc1Cl |

| pIC50 | SMILES |
| --- | --- |
| 7.18 | O=C(Nc1ccc(C(=O)Nc2cnc(Nc3cccc(OCCN4CCCC4)c3)nc2)c(Cl)c1)c1cccc(C(F)(F)F)c1 |
| 7.87 | CCOC(=O)c1cccc(Nc2ncc(NC(=O)c3cc(NC(=O)c4cccc(C(F)(F)F)c4)ccc3Cl)cn2)c1 |
| 7.14 | Nc1ncc(NC(=O)c2cc(NC(=O)c3cccc(C(F)(F)F)c3)ccc2Cl)cn1 |
| 5.59 | CC(=O)Nc1ccc(Cl)c(C(=O)Nc2cnc(Nc3ccc(S(=O)(=O)C4CCNCC4)cc3)nc2)c1 |
| 6.39 | O=C(Nc1cnc(Nc2ccc(CCCN3CCCC3)cc2)nc1)c1cc(Nc2ccc3ccccc3n2)ccc1Cl |
| < 5.00 | O=C(Nc1ccc(Cl)c(C(=O)Nc2cnc(NCCN3CCCC3)nc2)c1)c1cccc(C(F)(F)F)c1 |
| 7.11 | Cc1cc(C(=O)Nc2ccc(Cl)c(C(=O)Nc3cnc(Nc4ccc(OCCN5CCCC5)cc4)nc3)c2)no1 |
| 5.89 | Cc1ccc(S(=O)(=O)NCc2ccccc2)cc1Nc1cnc(Nc2ccc(S(=O)(=O)NCCN3CCCC3)cc2)nc1 |
| ~5.00 | Cc1ccc(S(N)(=O)=O)cc1Nc1cnc(Nc2ccc(S(=O)(=O)NCCN3CCCC3)cc2)nc1 |
| 7.20 | O=C(Nc1cnc(Nc2cccc(OCCN3CCCC3)c2)nc1)c1cc(NC(=O)C(F)(F)F)ccc1Cl [drawing 168] |
| 8.55 | O=C(Nc1ccc(Cl)c(C(=O)Nc2cnc(Nc3ccc(CCCN4CCCC4)cc3)nc2)c1)c1cccc(C(F)(F)F)c1 [drawing 172] |
| 7.30 | Cc1ccc(NC(=O)C(F)(F)F)cc1C(=O)Nc1cnc(Nc2cccc(OCCN3CCCC3)c2)nc1 [drawing 173] |
| 8.59 | O=C(Nc1ccc(Cl)c(C(=O)Nc2cnc(Nc3ccc(CCCN4CCCC4)cc3)nc2)c1)c1cccc(C(F)(F)F)c1 [drawing 180] |
| 8.66 | O=C(Nc1cccc(C(F)(F)F)c1)Nc1ccc(Cl)c(C(=O)Nc2cnc(Nc3ccc(OCCN4CCCC4)cc3)nc2)c1 [drawing 202] |
| 8.33 | O=C(Nc1ccc(Cl)c(C(=O)Nc2cnc(Nc3cccnc3)nc2)c1)c1cccc(C(F)(F)F)c1 [drawing 211] |
